Test results as given in paper PMC10856454, “Discovery of Novel Antitumor Small-Molecule Agent with Dual Action of CDK2/p-RB and MDM2/p53” (Molecules, 2024).

Experiments:
[1] = test system: p-Rb, MDM2, p53 in HCT116 transplanted tumors; test: Western blot of transplanted tumor tissues of nude mice; format: in vivo, Balb/c nude mice; conditions: Western blot of tumor tissue
Protocol: Total protein from HCT116, OVCAR3 cells and tissues was collected and homogenized in RIPA buffer. The total cellular protein extract was electrophoresed on 12% SDS-polyacrylamide gels and then transferred to a PVDF membrane (Thermo Fisher Scientific, Waltham, MA, USA). Primary antibodies were incubated overnight at 4 °C and secondary antibodies were incubated at room temperature for 1.5 h. Imaging was performed using Image Quant LAS4000 (GE, Boston, MA, USA).
HCT116 cells (1 × 10^6) were implanted into the back of adult male Balb/c nude mice by subcutaneous injection. […] The solvent or drug containing solution was administered daily to the vehicle and dosing groups by intraperitoneal injection (0.2 mL/20 g). Tumor growth was measured every three days during treatment. At the end of the treatment, the mice were killed, and the tumors were removed and weighed.

[2] = Liver microsomal stability, human; format: in vitro ADME; conditions: Human liver microsomes
Protocol: Compounds were incubated with mouse, rat, and human liver microsomal samples and NADPH at 37 °C for 5, 10, 20, 30, or 60 min. The reaction was terminated with a cold acetonitrile solution containing tolbutamide. Compound retention was determined by LC-MS/MS. The retention times, chromatographic acquisition, and chromatographic integration of compounds and positive control substances were analyzed using Analyst (AB Sciex, Framingham, MA, USA).

[3] = biological target: T1, CDK6 (Homo sapiens, UniProt Q00534); test: Kinase antagonist activity assay (TR-FRET), CDK6; format: biochemical
T1 construct: purchased Thermo Fisher Scientific
T1 sequence (Q00534 whole entry): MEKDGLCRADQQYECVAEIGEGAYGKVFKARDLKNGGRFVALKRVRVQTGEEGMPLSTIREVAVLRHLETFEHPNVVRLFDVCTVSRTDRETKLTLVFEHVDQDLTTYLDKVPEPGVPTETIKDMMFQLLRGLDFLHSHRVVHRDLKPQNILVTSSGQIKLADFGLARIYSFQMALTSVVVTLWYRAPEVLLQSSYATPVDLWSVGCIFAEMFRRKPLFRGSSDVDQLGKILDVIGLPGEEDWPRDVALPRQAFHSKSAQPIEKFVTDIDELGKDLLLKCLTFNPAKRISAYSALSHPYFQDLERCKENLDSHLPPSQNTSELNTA
T1 sequence (P24385 whole entry partner): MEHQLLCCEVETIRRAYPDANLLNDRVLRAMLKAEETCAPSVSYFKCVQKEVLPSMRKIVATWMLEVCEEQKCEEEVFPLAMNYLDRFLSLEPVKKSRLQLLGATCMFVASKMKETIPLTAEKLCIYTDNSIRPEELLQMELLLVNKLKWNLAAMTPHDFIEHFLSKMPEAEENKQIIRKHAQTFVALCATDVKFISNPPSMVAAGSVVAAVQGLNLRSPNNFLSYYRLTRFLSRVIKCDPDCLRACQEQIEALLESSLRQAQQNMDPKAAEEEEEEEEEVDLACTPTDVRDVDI
Protocol: The compounds were solubilized with DMSO (Solarbio Life Sciences, Beijing, China), and 11 concentrations were serially diluted at 3-fold; 100 nL of compound was added to 384-well plates, 5 μL of 2 × enzyme mixture (Thermo Fisher Scientific, Waltham, MA, USA) was added, and 5 μL of buffer was added instead of the complete inhibition control wells. Then, 1000 rpm centrifugation was performed for 30 s followed by a 15 min incubation at 23 °C. Next, 5 μL of 2 × MLight-MBP peptide (PerkinElmer, Waltham, MA, USA) was added to each well, with 1000 rpm centrifugation for 30 s and incubation at 23 °C for 90 min. At the end of the incubation, the reaction was terminated with buffer containing 15 mM EDTA and 2 nM Eu-anti-P-MBP antibody (PerkinElmer, Waltham, MA, USA), centrifuged at 1000 rpm for 1 min, and incubated at 23 °C for 60 min; the plates were read on a Perkin Elmer Envision ([…]).

## CC1(C)CCN1C(=O)O[C@@H]1CC[C@H](c2cc(NC(=O)Cc3ccc(N4CCCC4=O)cc3)n[nH]2)C1 [III-13]
[1]
  level of MDM2 in transplanted tumors: significantly down-regulated
  level of p53 protein in transplanted tumors: up-regulated
  level of p-Rb in the transplanted tumors: significantly reduced
[2]
  CLint scaled: 59.9 mL/min/kg
[2]; 60 min
  Remaining (T = 60 min): 15.4%
[2]; NADPH, 37 °C
  half-life: 21.9 min
[3]
  IC50: 1300 nM
  IC90: 16 µM
